Data: US20230391774A1, “Novel Compounds” (AC Immune SA, priority 2020, published 2023)

These compounds were tested against T1, flTau aggregates (longest isoform of human Tau, 2N4R) (Homo sapiens, UniProt P10636) (assay: Full-length Tau (flTau) disaggregation assay by Thioflavin T (ThT)). Settings: ThT fluorescence; 60 nM flTau aggregates, 30 minutes at RT; read-out: flTau disaggregation EC50.
T1 construct: 35 μM of recombinant full-length (fl) Tau in phosphate-buffered saline (PBS) were aggregated; purchased Biotechne; host or cells: bacteria
Assay type: biochemical
Procedure: Full-Length Tau (flTau) Disaggregation Assay by Thioflavin T (ThT)
The longest isoform of human Tau (2N4R; 441 amino acids) was expressed in bacteria and purified (Biotechne). For the Tau disaggregation assay by ThT, 35 μM of recombinant full-length (fl) Tau in phosphate-buffered saline (PBS) were aggregated for 72 hours at 37° C. in presence of 35 μM of heparin (Sigma-Aldrich) and 10 mM of […] (Sigma-Aldrich) under shaking at 1000 RPM. Compound 1 was dissolved in anhydrous dimethyl sulfoxide (DMSO, Sigma-Aldrich) to reach a concentration of 2.5 mM. flTau aggregates and serial dilutions of compound 1 were mixed together in PBS (volume 50 μL) to a final concentration of 60 nM of flTau aggregates and from 20 to 0.0012 μM of Compound 1. The mixture was incubated for 30 minutes at room temperature (RT), then 40 μL of this mixture were transferred into a black 384-well plate assay (Perkin-Elmer) and mixed with 10 μL of 20 μM ThT in 250 mM glycine (both from Sigma-Aldrich) in PBS. Fluorescence (relative fluorescence units; RFU) was measured in monoplicate or duplicate on a Tecan reader (excitation: 440 nm; emission: 485 nm). Percentage of flTau disaggregation was then calculated and the half maximal effective concentration (EC50) was determined using GraphPad Prism version 8 (GraphPad Software) assuming a one-binding site fitting model, see Table 3 and Table 4.

T1 sequence (P10636 1-441 isoform P10636-8): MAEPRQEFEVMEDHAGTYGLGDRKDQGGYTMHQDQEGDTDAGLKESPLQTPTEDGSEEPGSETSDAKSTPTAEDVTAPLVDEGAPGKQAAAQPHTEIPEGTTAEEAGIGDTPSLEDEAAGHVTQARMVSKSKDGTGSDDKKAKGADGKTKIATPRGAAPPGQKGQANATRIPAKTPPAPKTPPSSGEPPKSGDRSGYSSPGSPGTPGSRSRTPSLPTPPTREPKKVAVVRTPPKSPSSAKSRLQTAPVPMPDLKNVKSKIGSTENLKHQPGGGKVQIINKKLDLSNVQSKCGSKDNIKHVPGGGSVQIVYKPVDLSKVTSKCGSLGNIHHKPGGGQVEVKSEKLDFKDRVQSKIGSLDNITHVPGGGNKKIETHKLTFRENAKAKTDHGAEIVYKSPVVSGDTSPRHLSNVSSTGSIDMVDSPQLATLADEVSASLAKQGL

Row | EC50 | SMILES
1 | 1 to 10 µM | Cn1cc(-c2ccc3oc(N4CCOCC4)nc3c2)c2cc(F)cnc21 [Example 3, 5-(5-fluoro-1-methyl-1H-pyrrolo[2,3-b]pyridin-3-yl)-2-morpholinobenzo[d]oxazole]
2 | < 1 µM | c1ccc2c(-c3ccc4oc(N5CCOCC5)nc4c3)n[nH]c2c1 [Example 4, 5-(1H-indazol-3-yl)-2-morpholinobenzo[d]oxazole]
3 | < 1 µM | C(#Cc1n[nH]c2ccccc12)c1ccc2oc(N3CCOCC3)nc2c1 [Example 5, 5-((1H-indazol-3-yl)ethynyl)-2-morpholinobenzo[d]oxazole]
4 | 1 to 10 µM | C(#Cc1c[nH]c2ccccc12)c1ccc2oc(N3CCOCC3)nc2c1 [Example 6, 5-((1H-indol-3-yl)ethynyl)-2-morpholinobenzo[d]oxazole]
5 | < 1 µM | c1ccc2c(-c3cnn(-c4ccc5oc(N6CCOCC6)nc5c4)c3)n[nH]c2c1 [Example 8, 5-(4-(1H-indazol-3-yl)-1H-pyrazol-1-yl)-2-morpholinobenzo[d]oxazole]
6 | < 1 µM | c1ccc2c(-c3ccn(-c4ccc5oc(N6CCOCC6)nc5c4)n3)n[nH]c2c1 [Example 10, 5-(3-(1H-indazol-3-yl)-1H-pyrazol-1-yl)-2-morpholinobenzo[d]oxazole]
7 | < 1 µM | c1ccc2c(-c3ccn(-c4ccc5oc(N6CCOCC6)nc5c4)n3)c[nH]c2c1 [Example 11, 5-(3-(1H-indol-3-yl)-1H-pyrazol-1-yl)-2-morpholinobenzo[d]oxazole]
8 | < 1 µM | O=C(Nc1ccc2oc(N3CCOCC3)nc2c1)c1c[nH]c2ccccc12 [Example 12, N-(2-morpholinobenzo[d]oxazol-5-yl)-1H-indole-3-carboxamide]
9 | < 1 µM | O=C(Nc1ccc2oc(N3CCOCC3)nc2c1)c1c[nH]c2ncccc12 [Example 13, N-(2-morpholinobenzo[d]oxazol-5-yl)-1H-pyrrolo[2,3-b]pyridine-3-carboxamide]
10 | 1 to 10 µM | O=C(Nc1ccc2oc(N3CCOCC3)nc2c1)c1n[nH]c2ccccc12 [Example 18, N-(2-morpholinobenzo[d]oxazol-5-yl)-1H-indazole-3-carboxamide]
11 | 1 to 10 µM | Cn1cc(C2CCN(c3ccc4oc(N5CCOCC5)nc4c3)CC2)c2cccnc21 [Example 21, 5-(4-(1-methyl-1H-pyrrolo[2,3-b]pyridin-3-yl)piperidin-1-yl)-2-morpholinobenzo[d]oxazole]
12 | 1 to 10 µM | Fc1cnc2[nH]cc(C3CCN(c4ccc5oc(N6CCOCC6)nc5c4)CC3)c2c1 [Example 22, 5-(4-(5-fluoro-1H-pyrrolo[2,3-b]pyridin-3-yl)piperidin-1-yl)-2-morpholinobenzo[d]oxazole]
13 | 1 to 10 µM | c1ccn2c(C3CCN(c4ccc5oc(N6CCOCC6)nc5c4)CC3)cnc2c1 [Example 25, 5-(4-(imidazo[1,2-a]pyridin-3-yl)piperidin-1-yl)-2-morpholinobenzo[d]oxazole]
14 | < 1 µM | c1ccc2c(C3CCN(c4cnc5nc(N6CCOCC6)sc5c4)CC3)c[nH]c2c1 [Example 28, 4-(6-(4-(1H-indol-3-yl)piperidin-1-yl)thiazolo[4,5-b]pyridin-2-yl)morpholine]
15 | < 1 µM | Fc1cnc2c(C3CCN(c4ccc5nc(N6CCOCC6)sc5c4)CC3)c[nH]c2c1 [Example 30, 4-(6-(4-(6-fluoro-1H-pyrrolo[3,2-b]pyridin-3-yl)piperidin-1-yl)benzo[d]thiazol-2-yl)morpholine]
16 | 1 to 10 µM | Cn1nc(C2CCN(c3ccc4oc(N5CCOCC5)nc4c3)CC2)c2cccnc21 [Example 31, 5-(4-(1-methyl-1H-pyrazolo[3,4-b]pyridin-3-yl)piperidin-1-yl)-2-morpholinobenzo[d]oxazole]

Row | EC50 | SMILES
17 | 1 to 10 µM | c1ccc2c(C3CCN(c4ccc5oc(N6CCOCC6)nc5c4)C3)c[nH]c2c1 (centres unmarked) [Example 39, 5-(3-(1H-indol-3-yl)pyrrolidin-1-yl)-2-morpholinobenzo[d]oxazole]
18 | < 1 µM | c1ccc2c(C3CCN(c4ccc5oc(N6CCOCC6)nc5c4)C3)c[nH]c2c1 (centres unmarked) [Example 40, 5-(3-(1H-indol-3-yl)pyrrolidin-1-yl)-2-morpholinobenzo[d]oxazole]
19 | 1 to 10 µM | c1ccc2c(C3CCN(c4cc5nc(N6CCOCC6)oc5cn4)CC3)n[nH]c2c1 [Example 45, 6-(4-(1H-indazol-3-yl)piperidin-1-yl)-2-morpholinooxazolo[5,4-c]pyridine]
20 | 1 to 10 µM | c1ccc2c(C3CCN(c4cc5nc(N6CCOCC6)oc5cn4)CC3)c[nH]c2c1 [Example 48, 6-(4-(1H-indol-3-yl)piperidin-1-yl)-2-morpholinooxazolo[5,4-c]pyridine]
21 | 10 to 50 µM | c1ccc2c(C3CCN(c4cnc5oc(N6CCOCC6)nc5c4)CC3)n[nH]c2c1 [Example 49, 6-(4-(1H-indazol-3-yl)piperidin-1-yl)-2-morpholinooxazolo[5,4-b]pyridine]
22 | 1 to 10 µM | Fc1ccc2[nH]nc(C3CCN(c4ccc5oc(N6CCOCC6)nc5c4)CC3)c2c1 [Example 61, 5-(4-(5-fluoro-1H-indazol-3-yl)piperidin-1-yl)-2-morpholinobenzo[d]oxazole]
23 | 1 to 10 µM | Cn1cc(C2CCN(c3ccc4oc(N5CCOCC5)nc4c3)CC2)c2ccccc21 [Example 68, 5-(4-(1-methyl-1H-indol-3-yl)piperidin-1-yl)-2-morpholinobenzo[d]oxazole]
24 | 10 to 50 µM | c1ccc2c(C3CCN(c4cc5oc(N6CCOCC6)nc5cn4)CC3)n[nH]c2c1 [Example 72, 6-(4-(1H-indazol-3-yl)piperidin-1-yl)-2-morpholinooxazolo[4,5-c]pyridine]
25 | 1 to 10 µM | Fc1cccc2[nH]nc(C3CCN(c4ccc5oc(N6CCOCC6)nc5c4)CC3)c12 [Example 73, 5-(4-(4-fluoro-1H-indazol-3-yl)piperidin-1-yl)-2-morpholinobenzo[d]oxazole]
26 | 1 to 10 µM | Fc1ccc2c(C3CCN(c4ccc5oc(N6CCOCC6)nc5c4)CC3)n[nH]c2c1 [Example 74, 5-(4-(6-fluoro-1H-indazol-3-yl)piperidin-1-yl)-2-morpholinobenzo[d]oxazole]
27 | < 1 µM | Fc1cccc2c(C3CCN(c4ccc5oc(N6CCOCC6)nc5c4)CC3)n[nH]c12 [Example 75, 5-(4-(7-fluoro-1H-indazol-3-yl)piperidin-1-yl)-2-morpholinobenzo[d]oxazole]
28 | 1 to 10 µM | Cc1ccc2[nH]nc(C3CCN(c4ccc5oc(N6CCOCC6)nc5c4)CC3)c2c1 [Example 76, 5-(4-(5-methyl-1H-indazol-3-yl)piperidin-1-yl)-2-morpholinobenzo[d]oxazole]
29 | 1 to 10 µM | Cc1ccc2c(C3CCN(c4ccc5oc(N6CCOCC6)nc5c4)CC3)n[nH]c2c1 [Example 77, 5-(4-(6-methyl-1H-indazol-3-yl)piperidin-1-yl)-2-morpholinobenzo[d]oxazole]
30 | 1 to 10 µM | Cc1cccc2c(C3CCN(c4ccc5oc(N6CCOCC6)nc5c4)CC3)n[nH]c12 [Example 78, 5-(4-(7-methyl-1H-indazol-3-yl)piperidin-1-yl)-2-morpholinobenzo[d]oxazole]
31 | < 1 µM | c1ccc2c(N3CCN(c4ccc5oc(N6CCOCC6)nc5c4)CC3)n[nH]c2c1 [Example 79, 5-(4-(1H-indazol-3-yl)piperazin-1-yl)-2-morpholinobenzo[d]oxazole]
32 | 1 to 10 µM | COC1CCN(c2nc3cc(N4CCC(c5n[nH]c6ccccc56)CC4)ccc3o2)CC1 [Example 80, 5-(4-(1H-indazol-3-yl)piperidin-1-yl)-2-(4-methoxypiperidin-1-yl)benzo[d]oxazole]
